Test results reported in publication PMC8016831, “Structure–function engineering of novel fish gelatin-derived multifunctional peptides using high-resolution peptidomics and bioinformatics” (Scientific Reports, 2021).
Ends that are not written are not given here.

Key:
[1] = molecular target: dipeptidyl peptidase IV (DPP-IV) (Homo sapiens, UniProt P27487); assay: In vitro antidiabetic assay (DPP-IV inhibition); format: biochemical
Description: To assess antidiabetic activity, a pre-incubated solution (50 μL) containing 30 μL Tris-HCl buffer, 5 μL of peptides (0.1, 0.2, 0.4, 0.8, 1, 2, and 4 mg mL^−1) or standard (5 μM), and 15 μL […] were poured into the wells of a 96-well microplate. Afterward, 50 μL DPP-IV (0.02 U mL^−1) was added to the mixture and incubated at 37 °C for 30 min. The reaction was stopped by adding 100 μL sodium acetate (1 M, pH 4). Absorbance at 405 nm was measured in a microplate reader. Diprotein-A (isoleucine-proline-isoleucine) was used as a standard DPP-IV inhibitor. The antidiabetic activity was calculated as follows:3 DPP - IVinhibitoryactivity(%)=1-Asample-Ablanck/Apositicecontrol-Anegativecontrol×100
Tris-HCl (100 mM) was added to the mixture instead of DPP-IV, peptide, or peptide plus DPP-IV to represent a blank, positive, and negative control, respectively.

[2] = test system: P. aeruginosa (ATCC 9027); format: cell-based, Pseudomonas aeruginosa; conditions: ATCC 9027, 24 h
Description: (§1) The hydrolysates were investigated for their antibacterial activity against E. coli (ATCC 8739), P. aeruginosa (ATCC 9027), S. aureus (ATCC 6538), and K. pneumoniae (ATCC 43816) using the […]. Briefly, 50 μL of different concentrations of peptides were prepared in sterile Mueller Hinton broth. A volume of 30 μL of resazurin indicator solution (0.02%) was added to each well. An equal volume of bacterial suspension (0.5 McFarland standard) and sterile Mueller Hinton broth was then added to the well and incubated at 37 °C for 24 h. Sterile Mueller Hinton broth and 20 μg mL^−1 gentamycin were used as blank and positive controls, respectively. Afterward, the minimum inhibitory concentration (MIC) was determined as the lowest concentration of the peptides at which no visible growth was observed, compared to the positive control. All dilutions were performed in duplicate.

in vitro = format: cell-based; conditions: human, Caco-2 cells
Description: The synthesized peptides were investigated for ACE and DPP-IV inhibitory activity, and antibacterial potential against E. coli, P. aeruginosa, S. aureus, and K. pneumoniae. Their cytotoxicity was also analyzed using the method described by Benjakul et al.[20], with some modifications. Briefly, Caco-2 and L929 cell lines were cultured in Dulbecco's Modified Eagle Medium and the RAW264.7 cell line in RPMI 1640 medium and incubated at 5% CO2 and 37 °C. All media were supplemented with 10% fetal bovine serum. Each cell line (100 µL at 2 × 10^4 cells mL^−1) was seeded onto 96-well microplates and mixed with an equal volume of each peptide at 1, 2, 4, and 6 mg mL^−1. Subsequently, the microplate was incubated for 72 h, followed by a cell viability assay using the MTT I proliferation kit (Roche Diagnostics, Basel, Switzerland). The absorbance was recorded at 570 nm.

E. coli (ATCC 8739) = format: cell-based, Escherichia coli; conditions: ATCC 8739, 24 h
Description: as §1

S. aureus (ATCC 6538) = format: cell-based, Staphylococcus aureus; conditions: ATCC 6538, 24 h
Description: as §1

[3] = molecular target: angiotensin-converting enzyme (ACE) (Homo sapiens, UniProt P12821); assay: In vitro antihypertensive assay (ACE inhibition, FAPGG, spectrophotometric); format: biochemical
Description: A spectrophotometrical method was used to determine the antihypertensive activity of peptides according to the procedure of Asoodeh, et al.[18], with some modifications. ACE (22 µL at 50 mU mL^−1) was mixed with 50 µL of the peptides at increasing concentrations (0.1, 0.2, 0.4, 0.8, 1, and 2 mg mL^−1). FAPGG (100 µL at 0.5 mM) and 150 µL of ACE buffer (50 mM Tris-HCl [pH 7.5] containing 0.3 M NaCl and 1 mM ZnCl2) were added to the mixture, followed by monitoring at 340 nm for 60 min. The antihypertensive activity was calculated as follows:2 Antihypertensiveactivity%=1-ΔAbssample/ΔAbscontrol×100
The ACE buffer was added to the mixture instead of the peptides for control. For determination of the experiment precision, captopril (15 nM) was used as positive control. The half maximal inhibitory concentration (IC50) was defined as the concentration of the peptides at which 50% of ACE activity was inhibited. All experiments were performed in triplicate.

[4] = test system: K. pneumoniae (ATCC 43816); format: cell-based, Klebsiella pneumoniae; conditions: ATCC 43816, 24 h
Description: as §1

DPP-IV = test system: DPP-IV; set-up: method as in PMID 26323964; conditions: cited from earlier work
ACE = conditions: cited from earlier work

Chain of angiotensin-converting enzyme (ACE) (P12821 30-1306, species assumed): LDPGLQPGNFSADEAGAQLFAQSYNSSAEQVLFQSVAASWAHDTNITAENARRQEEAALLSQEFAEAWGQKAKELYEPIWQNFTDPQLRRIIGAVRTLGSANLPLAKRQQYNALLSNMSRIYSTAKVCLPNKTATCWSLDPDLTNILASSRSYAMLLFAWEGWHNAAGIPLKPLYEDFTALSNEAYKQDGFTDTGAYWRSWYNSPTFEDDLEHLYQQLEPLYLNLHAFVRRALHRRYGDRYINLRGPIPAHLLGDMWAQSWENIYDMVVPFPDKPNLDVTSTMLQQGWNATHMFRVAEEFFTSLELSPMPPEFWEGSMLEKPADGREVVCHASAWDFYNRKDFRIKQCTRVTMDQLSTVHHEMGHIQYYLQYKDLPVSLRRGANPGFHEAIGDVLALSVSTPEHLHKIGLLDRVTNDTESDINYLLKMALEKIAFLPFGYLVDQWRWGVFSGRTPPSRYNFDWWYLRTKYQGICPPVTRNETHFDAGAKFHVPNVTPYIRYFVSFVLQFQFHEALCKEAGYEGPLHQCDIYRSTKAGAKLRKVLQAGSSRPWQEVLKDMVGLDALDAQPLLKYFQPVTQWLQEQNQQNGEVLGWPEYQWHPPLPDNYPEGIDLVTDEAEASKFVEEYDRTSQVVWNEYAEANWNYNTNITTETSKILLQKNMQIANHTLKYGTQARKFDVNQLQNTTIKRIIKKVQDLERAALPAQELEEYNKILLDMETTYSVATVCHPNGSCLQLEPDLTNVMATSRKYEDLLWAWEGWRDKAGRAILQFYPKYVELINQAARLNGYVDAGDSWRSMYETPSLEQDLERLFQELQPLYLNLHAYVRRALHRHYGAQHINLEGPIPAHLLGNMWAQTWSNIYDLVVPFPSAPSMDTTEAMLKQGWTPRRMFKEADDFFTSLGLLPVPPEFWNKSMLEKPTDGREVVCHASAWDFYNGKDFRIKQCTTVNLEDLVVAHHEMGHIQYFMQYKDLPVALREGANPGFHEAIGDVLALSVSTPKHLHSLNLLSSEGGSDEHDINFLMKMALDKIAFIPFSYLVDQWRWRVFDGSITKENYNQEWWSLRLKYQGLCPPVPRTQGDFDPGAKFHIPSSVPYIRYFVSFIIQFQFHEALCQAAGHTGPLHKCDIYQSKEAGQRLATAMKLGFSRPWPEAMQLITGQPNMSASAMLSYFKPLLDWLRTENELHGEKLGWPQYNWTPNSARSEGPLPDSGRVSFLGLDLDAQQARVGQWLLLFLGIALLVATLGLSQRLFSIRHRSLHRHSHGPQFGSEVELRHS
Chain of dipeptidyl peptidase IV (DPP-IV) (P27487 whole entry, species assumed): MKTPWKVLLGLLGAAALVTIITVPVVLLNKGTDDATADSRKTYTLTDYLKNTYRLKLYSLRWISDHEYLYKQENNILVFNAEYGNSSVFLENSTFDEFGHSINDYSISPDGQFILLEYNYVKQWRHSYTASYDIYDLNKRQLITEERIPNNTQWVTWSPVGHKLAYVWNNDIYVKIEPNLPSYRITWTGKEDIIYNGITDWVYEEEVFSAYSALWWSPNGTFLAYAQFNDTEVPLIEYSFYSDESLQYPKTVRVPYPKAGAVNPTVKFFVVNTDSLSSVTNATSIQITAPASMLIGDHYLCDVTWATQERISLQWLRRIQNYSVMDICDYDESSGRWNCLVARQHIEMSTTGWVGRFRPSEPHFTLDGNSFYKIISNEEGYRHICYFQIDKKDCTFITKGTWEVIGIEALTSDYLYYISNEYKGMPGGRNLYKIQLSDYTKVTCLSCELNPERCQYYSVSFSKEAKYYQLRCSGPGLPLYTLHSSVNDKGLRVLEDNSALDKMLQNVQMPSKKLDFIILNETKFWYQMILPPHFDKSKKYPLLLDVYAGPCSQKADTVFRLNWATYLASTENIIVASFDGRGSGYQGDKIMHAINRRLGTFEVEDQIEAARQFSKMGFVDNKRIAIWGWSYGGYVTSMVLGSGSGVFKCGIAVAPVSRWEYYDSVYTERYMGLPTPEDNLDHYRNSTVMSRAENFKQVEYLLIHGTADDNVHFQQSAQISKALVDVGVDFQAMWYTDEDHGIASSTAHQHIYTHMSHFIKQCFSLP

Substance	IC50 [1] [µM]	MIC against P. aeruginosa [2] [µg/mL]	viability at 72 h, 6 mg mL^−1 (in vitro) [%]	MIC for E. coli (E. coli (ATCC 8739)) [µg/mL]	MIC against S. aureus (S. aureus (ATCC 6538)) [µg/mL]	IC50 [3] [µM]	MIC against K. pneumoniae [4] [µg/mL]	DPP-IV inhibitory activities (DPP-IV)	ACE inhibition (ACE) [%]
GRDGEP-NH2 [P2, GRDGEP]	1480	≥ 2000	95.8	1330	1160	811	≥ 2000	–	–
MHQPPQPL	–	–	–	–	–	–	–	moderate	–
MTGTQGEAGR-NH2 [P3, MTGTQGEAGR]	1150	1660	95.9	460	200	775	1500	–	–
SPTVMFPPQSVL	–	–	–	–	–	–	–	moderate	–
VLAQYK	–	–	–	–	–	–	–	–	30.1
